Experimental data taken from paper PMC12332404, “Cytochrome P450BM-3 and P450 11A1 retain Compound I (FeO^3+) chemistry with electrophilic substrates poised for Compound 0 (Fe^3+O2^−) reactions” (The Journal of Biological Chemistry, 2025).

Experiments:
[1] = target: T1, P450 11A1 (Homo sapiens, UniProt P05108); assay: UV-vis spectral binding titration (Type II behavior); LC-MS turnover
T1 construct: gene CYP11A1
T1 sequence (P05108 40-521): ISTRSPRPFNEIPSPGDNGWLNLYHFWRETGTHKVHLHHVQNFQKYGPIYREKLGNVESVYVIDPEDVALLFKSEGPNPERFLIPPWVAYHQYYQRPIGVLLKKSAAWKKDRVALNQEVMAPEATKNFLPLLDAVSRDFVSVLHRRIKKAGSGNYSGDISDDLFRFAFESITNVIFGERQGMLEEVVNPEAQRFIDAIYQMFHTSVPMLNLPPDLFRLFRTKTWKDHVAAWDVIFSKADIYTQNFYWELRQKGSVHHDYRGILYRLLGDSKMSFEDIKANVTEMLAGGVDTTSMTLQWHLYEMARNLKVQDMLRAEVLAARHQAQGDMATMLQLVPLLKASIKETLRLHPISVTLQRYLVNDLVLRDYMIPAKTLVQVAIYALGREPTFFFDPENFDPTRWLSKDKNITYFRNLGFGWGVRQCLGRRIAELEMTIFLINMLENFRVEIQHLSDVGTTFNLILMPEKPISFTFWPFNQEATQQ

[2] = target: T2, P450BM-3 (102A1) (Priestia megaterium, UniProt P14779); assay: NADPH oxidation and LC-MS hydroxylation rate ([…] min^-1) with purified enzyme; format: biochemical
T2 construct: gene cyp102A1
T2 sequence (P14779 1-1049): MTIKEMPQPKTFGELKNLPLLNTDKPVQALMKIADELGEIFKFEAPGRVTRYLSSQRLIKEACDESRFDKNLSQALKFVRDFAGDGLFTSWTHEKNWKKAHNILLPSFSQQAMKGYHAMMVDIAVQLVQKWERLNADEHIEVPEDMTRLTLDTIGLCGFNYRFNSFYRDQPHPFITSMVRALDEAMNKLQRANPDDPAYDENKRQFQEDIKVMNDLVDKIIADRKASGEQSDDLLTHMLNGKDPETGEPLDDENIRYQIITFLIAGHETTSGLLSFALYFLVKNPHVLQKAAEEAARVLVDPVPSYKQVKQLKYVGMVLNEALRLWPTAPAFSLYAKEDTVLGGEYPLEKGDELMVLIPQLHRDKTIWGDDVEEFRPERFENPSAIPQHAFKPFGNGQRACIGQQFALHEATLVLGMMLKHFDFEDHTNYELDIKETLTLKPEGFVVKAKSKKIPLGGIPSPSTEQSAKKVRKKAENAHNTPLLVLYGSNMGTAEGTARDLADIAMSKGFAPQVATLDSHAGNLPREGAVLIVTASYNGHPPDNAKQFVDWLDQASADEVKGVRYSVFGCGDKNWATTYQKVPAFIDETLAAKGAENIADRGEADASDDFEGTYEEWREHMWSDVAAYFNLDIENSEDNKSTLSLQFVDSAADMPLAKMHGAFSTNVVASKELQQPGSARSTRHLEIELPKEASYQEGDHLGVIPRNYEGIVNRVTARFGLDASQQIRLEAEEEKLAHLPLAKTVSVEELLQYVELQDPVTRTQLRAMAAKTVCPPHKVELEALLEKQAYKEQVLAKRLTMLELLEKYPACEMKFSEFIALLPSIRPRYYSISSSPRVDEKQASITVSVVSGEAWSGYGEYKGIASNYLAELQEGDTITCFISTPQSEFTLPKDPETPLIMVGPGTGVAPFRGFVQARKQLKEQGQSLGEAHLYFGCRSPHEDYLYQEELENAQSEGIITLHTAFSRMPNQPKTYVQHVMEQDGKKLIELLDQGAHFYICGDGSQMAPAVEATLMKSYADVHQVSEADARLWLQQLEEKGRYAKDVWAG

[3] = target: T2, P450BM-3 (102A1); assay: as above; format: biochemical; remark: listed apart in the source
[4] = target: T2, P450BM-3 (102A1); assay: UV-vis spectral binding titration (Type I shift, […] to […] nm)
[5] = target: T2, P450BM-3 (102A1); assay: NADPH oxidation and LC-MS hydroxylation rate ([…] min^-1) with purified enzyme; format: biochemical; remark: listed apart in the source

CC(C)CCC(=O)[C@@H](C)[C@H]1CC[C@H]2[C@@H]3CC=C4C[C@@H](O)CC[C@]4(C)[C@H]3CC[C@]12C [22-oxocholesterol]
Kd [1]: 43 ± 20 µM

CCCCCCCCCCCC(=O)O [C12:0, dodecanoic acid]
NADPH oxidation and LC-MS hydroxylation rate (2.4 min^-1) with purified enzyme [2]: 2.4 min⁻¹

CCCCCCCCCCCCCC(=O)O [C14:0, tetradecanoic acid]
NADPH oxidation and LC-MS hydroxylation rate (73 min^-1) with purified enzyme [3]: 73 min⁻¹

CC(=O)CCCCCCCCCCC(=O)O [12-oxo C13:0, 12-oxotridecanoic acid]
Kd [4]: ~250 µM

CCCCCCCCCCCCCCCC(=O)O [C16:0, palmitic acid]
NADPH oxidation and LC-MS hydroxylation rate (100 min^-1) with purified enzyme [5]: 100 min⁻¹
